One data set addresses T1, VDR (Homo sapiens, UniProt P11473).
T1 construct: purchased Invitrogen
T1 sequence (P11473 127-423 limits assumed): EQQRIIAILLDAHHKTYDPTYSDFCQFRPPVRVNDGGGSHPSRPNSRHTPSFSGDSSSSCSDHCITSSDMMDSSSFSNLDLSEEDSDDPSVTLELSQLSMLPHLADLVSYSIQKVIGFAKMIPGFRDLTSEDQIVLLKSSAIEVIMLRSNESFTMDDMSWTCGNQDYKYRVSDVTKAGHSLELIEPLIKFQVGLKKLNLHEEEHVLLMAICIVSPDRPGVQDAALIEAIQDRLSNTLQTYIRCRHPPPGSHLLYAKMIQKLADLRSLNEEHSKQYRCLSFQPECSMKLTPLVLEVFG
Description: VDR activation, NR selectivity assay. Particulars: Table 6. The class given is biochemical.

For another data set, the system named is intestinal bacteria. Description: In vitro metabolic stability in human stools culture. It is filed as in vitro ADME. The method, then: Homogenized fresh human stools (500 mg) were transferred into sterile vials to which 5 mL of sterilized chopped meat-glucose medium (Scott Lab., Fiskville, R.I.) was added. BAs were then added at a final concentration of 0.05 mM. Vials were incubated at 37° C.; then, at 0, 1, 2, 4, 8 and 24 h after the addition of the BA, the reaction was stopped with 150 μL of 30% KOH. The samples were centrifuged at 3500 rpm for 10 min; from the supernatant the BA were isolated by C-18 solid-phase extraction and analyzed by TLC and HPLC-ES-MS/MS.
Thin-layer chromatography (TLC), utilizing silica gel 0.25 mm thickness plates (Merck, Darmstat, Germany), was employed as the first screening test. The solvent system used for the separation of conjugated BA was composed of propionic acid/isoamyl acetate/water/N-propanol (3:4:1:2, v/v/v/v; solvent I), and that of the unconjugated BA was acetic acid/carbon tetrachloride/isopropyl ether/isoamyl acetate/water/N-propanol/benzene (1:4:6:8:2:2, v/v/v/v/v/v; solvent II).

In the next data set the target is T2, CAR (Homo sapiens, UniProt Q14994).
T2 construct: purchased Invitrogen
T2 sequence (Q14994 109-352 limits assumed): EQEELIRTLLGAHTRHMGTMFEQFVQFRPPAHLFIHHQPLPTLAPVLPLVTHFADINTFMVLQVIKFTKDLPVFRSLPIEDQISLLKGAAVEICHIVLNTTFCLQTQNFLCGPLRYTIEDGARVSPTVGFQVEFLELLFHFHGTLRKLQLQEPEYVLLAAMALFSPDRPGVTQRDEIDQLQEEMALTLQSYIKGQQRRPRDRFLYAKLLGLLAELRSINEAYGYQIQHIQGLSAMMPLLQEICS
Description: CAR coactivator recruitment (Lanthascreen). It is filed as biochemical. Particulars: Table 6; coactivator recruitment (Lanthascreen). (In TR-FRET formats the signal depends on donor and acceptor labels being close together.)

Another data set deals with bovine serum albumin (Bos taurus, UniProt P02769). Kind of data set: Albumin binding by equilibrium dialysis. It is filed as in vitro ADME. On the set-up: 5% bovine serum albumin-saline solution (pH 7.2); from tissue; host or cells: bovine serum (by the name of the product). Particulars: 100 μM BA in 5% bovine serum albumin-saline, pH 7.2. The protocol: The extent of albumin binding was evaluated by equilibrium dialysis at a fixed BA-albumin ratio. Each BA was dissolved at a concentration of 100 μM in 5% bovine serum albumin-saline solution (pH 7.2) and left to stand for 24 h at 25° C. Two milliliters of this solution was dialyzed in cellulose sacs having a molecular weight cut-off of 12,000-14,000 Dalton against 25 ml of saline solution. The system was equilibrated by gently shaking for 72 h at 25° C. BA concentrations of the dialyzed solution (corresponding to the free unbound fraction) and of the starting solution were determined with HPLC-ESI-MS/MS in the same conditions of the previous analysis.
bovine serum albumin, sequence (P02769 25-607): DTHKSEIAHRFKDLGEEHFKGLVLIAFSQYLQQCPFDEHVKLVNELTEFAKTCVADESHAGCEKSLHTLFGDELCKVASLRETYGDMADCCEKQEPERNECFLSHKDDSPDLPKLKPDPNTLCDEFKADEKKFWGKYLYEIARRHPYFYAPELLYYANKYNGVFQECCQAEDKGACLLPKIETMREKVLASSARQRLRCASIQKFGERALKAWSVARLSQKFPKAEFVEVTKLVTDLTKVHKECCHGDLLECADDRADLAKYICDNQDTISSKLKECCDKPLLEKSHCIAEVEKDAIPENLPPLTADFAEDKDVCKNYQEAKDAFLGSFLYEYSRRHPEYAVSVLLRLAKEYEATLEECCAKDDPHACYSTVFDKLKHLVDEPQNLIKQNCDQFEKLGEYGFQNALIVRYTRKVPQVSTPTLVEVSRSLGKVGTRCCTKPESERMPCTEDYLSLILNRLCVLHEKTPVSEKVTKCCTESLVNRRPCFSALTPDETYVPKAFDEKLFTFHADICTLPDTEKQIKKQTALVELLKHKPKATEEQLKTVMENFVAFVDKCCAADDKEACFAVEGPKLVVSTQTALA
The percentage of albumin binding was calculated from the initial BA concentration and from the unbound concentration in the dialyzed fraction.
A general note: Equilibrium dialysis compares concentrations on both sides of a semipermeable membrane.

The next data set addresses T3, hFXR (Homo sapiens, UniProt Q96RI1).
T3 sequence (Q96RI1 262-486 limits assumed): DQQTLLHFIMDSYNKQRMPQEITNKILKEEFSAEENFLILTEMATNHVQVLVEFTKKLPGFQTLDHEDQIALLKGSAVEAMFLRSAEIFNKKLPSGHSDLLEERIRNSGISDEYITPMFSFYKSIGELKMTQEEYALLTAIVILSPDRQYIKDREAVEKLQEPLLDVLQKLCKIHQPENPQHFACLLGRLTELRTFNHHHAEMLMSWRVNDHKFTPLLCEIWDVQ
Kind of data set: Alphascreen coactivator recruitment assay on FXR.

In a further data set the target is T4, PXR (Homo sapiens, UniProt O75469).
T4 sequence (O75469 1-434): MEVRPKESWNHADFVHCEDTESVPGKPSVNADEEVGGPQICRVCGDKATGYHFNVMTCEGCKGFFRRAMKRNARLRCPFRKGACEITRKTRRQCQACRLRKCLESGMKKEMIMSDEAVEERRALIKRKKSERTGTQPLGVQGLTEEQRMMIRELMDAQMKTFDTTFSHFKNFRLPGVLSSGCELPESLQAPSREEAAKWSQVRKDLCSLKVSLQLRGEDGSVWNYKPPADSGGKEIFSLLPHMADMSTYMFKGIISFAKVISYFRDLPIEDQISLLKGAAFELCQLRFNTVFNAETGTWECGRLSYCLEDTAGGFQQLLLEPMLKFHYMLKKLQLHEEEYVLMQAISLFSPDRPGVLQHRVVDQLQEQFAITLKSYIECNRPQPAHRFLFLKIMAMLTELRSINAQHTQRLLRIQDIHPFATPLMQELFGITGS
Description: PXR ligands competition assay (binding assay). To be noted: Table 6.

The nature of data set [1]: 1-Octanol/water partition coefficient (shake-flask). Particulars: bile acids as ionized species, pH 8.
Description: The octanol/water partition coefficient was measured for molecules in their ionized form and therefore the carboxy analogues were studied at a relatively high pH (8 to 9) to ensure full ionization of the carboxyl group. The 1-Octanol/water partition coefficient (log P) was evaluated using a conventional shake-flask procedure. […] The aqueous buffer was previously pre-saturated with 1-octanol, 5 ml of 1-octanol pre-saturated with water was then added and the samples were left to equilibrate for 2 weeks under continuous stirring at room temperature. After centrifugation the two phases were carefully separated. […] The flow rate was 150 μal/min and the column was maintained at 45° C.

Each structure is given as a SMILES string. Counter-ions that a name gives are not always drawn.

As a reminder, the EC50 is the concentration at which the effect is half-maximal. A lower EC50 goes with a more potent agent. What is called IC50 is the concentration needed to halve the response being measured.

Description for hFXR: Activity on FXR was assayed by using Alphascreen technology in a coactivator recruitment assay. AlphaScreen is a bead-based chemistry assay used to study biomolecular interactions. Binding of molecules captured on the beads leads to an energy transfer from one bead to the other, ultimately producing a luminescent signal. When the partners interact, chemical energy is transferred from Donor to Acceptor beads and a signal is produced. Upon bile acids stimulation the GST-FXR-LBD interacts with the Src-1 peptide. Anti-GST-coated Acceptor beads were used to capture the GST-fusion FXR-LBD whereas the biotinylated-SRC-1 peptide was captured by the streptavidin Donor beads. Upon illumination at 680 nm chemical energy is transferred from Donor to Acceptor beads across the complex streptavidin-Donor/Src-1-Biotin/GSTFXR-LBD/Anti-GST-Acceptor and a signal is produced. The assay was performed in white, low-volume, 384-well Optiplates (PerkinElmer) using a final volume of 25 μl containing final concentrations of 10 nM of purified GST-tagged FXR-LBD protein, 30 nM biotinylated Src-1 peptide, 20 μg/ml anti-GST acceptor beads acceptor beads and 10 μg/ml of streptavidin donor bead (PerkinElmer). […] After the addition of the detection mix (acceptor and donor beads), the plates were incubated in the dark for 4 h at room temperature and then were read with an Envision microplate analyzer (PerkinElmer). […]

Turning to `CC[C@H]1[C@@H](O)[C@@H]2[C@H](CC[C@]3(C)[C@@H]([C@H](C)CCC(=O)O)[C@@H](O)C[C@@H]23)[C@@]2(C)CC[C@@H](O)C[C@@H]12` [Compound 10, 3α,7α,16β-trihydroxy-6α-ethyl-5β-cholan-24-oic acid sodium salt], the “VDR Activation EC50” value at VDR is reported as “No activity”. Besides, the “Compound recovered unmodified in human stool cultures” value in the data set on intestinal bacteria (after 24 hour incubation, 0.05 mM, 37° C.) is “more than 85%”. The “Side chain stability to intestinal bacteria” value in the data set on intestinal bacteria (human stool cultures) is “very stable for side chain metabolism”. For the same compound, at CAR, the “CAR Activation EC50” value is given as “No activity”. In addition, at bovine serum albumin, the “Albumin Binding” value stood at 83%. This compound returned an EC50 at hFXR of 12 µM. At PXR, the IC50 amounted to 64 µM. Besides, the “LogPA-: 1-octanol-water partition coefficient” value in data set [1] turned out to be 1.6.
